{"source": "paper PMC5510653", "about": "(ACS chemical neuroscience, 2016)", "key": {"[1]": {"conditions": "rhesus monkey, in vivo, sc, 10 mg/kg"}, "[2]": {"tested_on": "haloperidol-induced catalepsy", "conditions": "haloperidol-induced catalepsy model in rats ref 38; cited from earlier work"}, "[3]": {"tested_on": "electrical cardiac activities", "experiment": "Effects of ML218 on cardiac function", "format": "in vivo, Rhesus monkeys", "conditions": "ketamine sedation"}, "[4]": {"tested_on": "MPTP-treated parkinsonian monkeys", "experiment": "Motor behavior in MPTP-treated parkinsonian monkeys", "format": "in vivo, Rhesus monkeys"}, "[5]": {"tested_on": "MDCK-MDR1 (MDCK-Pgp) cells"}, "[6]": {"conditions": "rhesus monkey"}, "[7]": {"tested_on": "MPTP-treated parkinsonian monkey", "experiment": "ECoG recordings and scoring of state of arousal and movements", "format": "in vivo, Rhesus monkey", "conditions": "ML218 3 mg/kg s.c., one monkey"}, "slow-wave sleep": {"tested_on": "slow-wave sleep", "conditions": "mice ref 39, 40; cited from earlier work"}, "TH immunolabeling": {"tested_on": "TH immunolabeling", "experiment": "Post-mortem TH immunoperoxidase staining of striatum", "format": "in vivo, Rhesus monkeys", "conditions": "7 MPTP-treated animals vs mean of 3 non-treated monkeys, mean ± SEM"}}, "data": [{"compound": "CC(C)(C)CCN1C[C@@H]2C(CNC(=O)c3cc(Cl)cc(Cl)c3)[C@@H]2C1", "note": "(stereo partly shown) [ML218]", "values": [{"measurement": "CSF Tmax", "setting": "[1]", "result": "1 to 2", "unit": "h"}, {"measurement": "anti-cataleptic properties", "setting": "[2]", "result": "anti-cataleptic properties"}, {"measurement": "chronotropic effect (R-R interval)", "setting": "[3]; 30 mg/kg s.c., ECG two hours after injection, 3 animals", "result": "minor negative chronotropic effects"}, {"measurement": "effects on the other ECG parameters studied (PR, RT intervals)", "setting": "[3]; 10 and 30 mg/kg s.c.", "result": "no consistent effects"}, {"measurement": "effect of adding ML218 on L-DOPA-mediated responses", "setting": "[4]; ML218 3 mg/kg s.c. 60 min before L-DOPA 10 mg/kg i.m. plus 2.5 mg/kg benserazide", "result": "did not alter the L-DOPA-mediated responses"}, {"measurement": "activity counts compared to baseline", "setting": "[4]; ML218 10 mg/kg s.c., p=0.002", "result": "reduced"}, {"measurement": "number of movements compared to baseline", "setting": "[4]; ML218 10 mg/kg s.c., p=0.006", "result": "reduced"}, {"measurement": "antiparkinsonian effects (number of movements, activity counts)", "setting": "[4]; ML218 1, 10 and 30 mg/kg s.c., observed from 1 hour after injection", "result": "no antiparkinsonian effects"}, {"measurement": "Papp AB", "setting": "[5]", "result": 2.6, "unit": "e^− 6 cm/sec"}, {"measurement": "Fu (fraction of unbound compound in plasma)", "setting": "[6]", "result": 0.09}, {"measurement": "mean number of movements per 5 minute of observation", "setting": "[7]; 2 hours of observation, vehicle 51.07 ± 6.42, p=0.016", "result": "25.39 ± 4.52"}, {"measurement": "sleep ratio", "setting": "[7]; within 120 minutes, vehicle 0.09 ± 0.06, p=0.008", "result": "0.54 ± 0.06"}]}, {"compound": "C[C@@H](NC(=O)Cc1ccc(C2CC2)cc1)c1ccc(OCC(F)(F)F)cn1", "note": "[TTA-A2]", "values": [{"measurement": "effect on slow-wave sleep", "setting": "slow-wave sleep", "result": "promotes slow-wave sleep"}]}, {"compound": "CN1CC=C(c2ccccc2)CC1", "note": "[MPTP]", "values": [{"measurement": "reduction of TH immunolabeling in the caudate", "setting": "TH immunolabeling", "result": "89 ± 3", "unit": "%"}, {"measurement": "reduction of TH immunolabeling in the post-commissural putamen", "setting": "TH immunolabeling", "result": "87 ± 3", "unit": "%"}]}, {"compound": "N[C@@H](Cc1ccc(O)c(O)c1)C(=O)O", "note": "[L-DOPA, reference compound]", "values": [{"measurement": "antiparkinsonian effects (number of movements, activity counts)", "setting": "[4]; L-DOPA 5, 10, 15, 20 mg/kg i.m. in combination with benserazide", "result": "strong, dose-dependent antiparkinsonian effects"}]}]}
